The record followed here is ChEMBL document CHEMBL1124014, “Synthesis of (aryloxy)alkylamines. 2. Novel imidazo-fused heterocycles with calcium channel blocking and local anesthetic activity” (J Med Chem, 1988).

The source made the active and inactive calls. The calls are words filed in the database; no cut-off is given here.

Data set [1] deals with Mus musculus. As to the kind of experiment: Concentration causing local anesthetic activity in mice. It counts as functional, organism-based.
The target of data set [2] is T1, Voltage-dependent L-type calcium channel subunit alpha-1C (Oryctolagus cuniculus, UniProt P15381). Briefly: Inhibition of [3H]nitrendipine binding to calcium channels in Rabbit cardiac muscle. It counts as tissue-based, Muscle tissue.
For data set [3], the system named is Mus musculus. As to the kind of experiment: Concentration causing local anesthetic activity in mice; inactive. The format is functional, organism-based.
The species named for the next data set is Canis familiaris. Briefly: Percent inhibition of calcium-dependent potassium-polarized smooth muscle contraction in canine trachea. The format is functional, Canis lupus familiaris, Muscle tissue.
Data set [4] is described as follows: Inhibition of [3H]nitrendipine binding to calcium channels of rabbit cardiac muscle at 68 uM. Particulars: Oryctolagus cuniculus, Muscle tissue. The format is functional.
The target of data set [5] is T1, Voltage-dependent L-type calcium channel subunit alpha-1C. Briefly: Inhibition of [3H]nitrendipine binding to calcium channels of rabbit cardiac muscle at 10 uM. Particulars: probe [3H]nitrendipine. The format is functional, tissue-based, Muscle tissue.

T1 sequence (P15381 whole entry): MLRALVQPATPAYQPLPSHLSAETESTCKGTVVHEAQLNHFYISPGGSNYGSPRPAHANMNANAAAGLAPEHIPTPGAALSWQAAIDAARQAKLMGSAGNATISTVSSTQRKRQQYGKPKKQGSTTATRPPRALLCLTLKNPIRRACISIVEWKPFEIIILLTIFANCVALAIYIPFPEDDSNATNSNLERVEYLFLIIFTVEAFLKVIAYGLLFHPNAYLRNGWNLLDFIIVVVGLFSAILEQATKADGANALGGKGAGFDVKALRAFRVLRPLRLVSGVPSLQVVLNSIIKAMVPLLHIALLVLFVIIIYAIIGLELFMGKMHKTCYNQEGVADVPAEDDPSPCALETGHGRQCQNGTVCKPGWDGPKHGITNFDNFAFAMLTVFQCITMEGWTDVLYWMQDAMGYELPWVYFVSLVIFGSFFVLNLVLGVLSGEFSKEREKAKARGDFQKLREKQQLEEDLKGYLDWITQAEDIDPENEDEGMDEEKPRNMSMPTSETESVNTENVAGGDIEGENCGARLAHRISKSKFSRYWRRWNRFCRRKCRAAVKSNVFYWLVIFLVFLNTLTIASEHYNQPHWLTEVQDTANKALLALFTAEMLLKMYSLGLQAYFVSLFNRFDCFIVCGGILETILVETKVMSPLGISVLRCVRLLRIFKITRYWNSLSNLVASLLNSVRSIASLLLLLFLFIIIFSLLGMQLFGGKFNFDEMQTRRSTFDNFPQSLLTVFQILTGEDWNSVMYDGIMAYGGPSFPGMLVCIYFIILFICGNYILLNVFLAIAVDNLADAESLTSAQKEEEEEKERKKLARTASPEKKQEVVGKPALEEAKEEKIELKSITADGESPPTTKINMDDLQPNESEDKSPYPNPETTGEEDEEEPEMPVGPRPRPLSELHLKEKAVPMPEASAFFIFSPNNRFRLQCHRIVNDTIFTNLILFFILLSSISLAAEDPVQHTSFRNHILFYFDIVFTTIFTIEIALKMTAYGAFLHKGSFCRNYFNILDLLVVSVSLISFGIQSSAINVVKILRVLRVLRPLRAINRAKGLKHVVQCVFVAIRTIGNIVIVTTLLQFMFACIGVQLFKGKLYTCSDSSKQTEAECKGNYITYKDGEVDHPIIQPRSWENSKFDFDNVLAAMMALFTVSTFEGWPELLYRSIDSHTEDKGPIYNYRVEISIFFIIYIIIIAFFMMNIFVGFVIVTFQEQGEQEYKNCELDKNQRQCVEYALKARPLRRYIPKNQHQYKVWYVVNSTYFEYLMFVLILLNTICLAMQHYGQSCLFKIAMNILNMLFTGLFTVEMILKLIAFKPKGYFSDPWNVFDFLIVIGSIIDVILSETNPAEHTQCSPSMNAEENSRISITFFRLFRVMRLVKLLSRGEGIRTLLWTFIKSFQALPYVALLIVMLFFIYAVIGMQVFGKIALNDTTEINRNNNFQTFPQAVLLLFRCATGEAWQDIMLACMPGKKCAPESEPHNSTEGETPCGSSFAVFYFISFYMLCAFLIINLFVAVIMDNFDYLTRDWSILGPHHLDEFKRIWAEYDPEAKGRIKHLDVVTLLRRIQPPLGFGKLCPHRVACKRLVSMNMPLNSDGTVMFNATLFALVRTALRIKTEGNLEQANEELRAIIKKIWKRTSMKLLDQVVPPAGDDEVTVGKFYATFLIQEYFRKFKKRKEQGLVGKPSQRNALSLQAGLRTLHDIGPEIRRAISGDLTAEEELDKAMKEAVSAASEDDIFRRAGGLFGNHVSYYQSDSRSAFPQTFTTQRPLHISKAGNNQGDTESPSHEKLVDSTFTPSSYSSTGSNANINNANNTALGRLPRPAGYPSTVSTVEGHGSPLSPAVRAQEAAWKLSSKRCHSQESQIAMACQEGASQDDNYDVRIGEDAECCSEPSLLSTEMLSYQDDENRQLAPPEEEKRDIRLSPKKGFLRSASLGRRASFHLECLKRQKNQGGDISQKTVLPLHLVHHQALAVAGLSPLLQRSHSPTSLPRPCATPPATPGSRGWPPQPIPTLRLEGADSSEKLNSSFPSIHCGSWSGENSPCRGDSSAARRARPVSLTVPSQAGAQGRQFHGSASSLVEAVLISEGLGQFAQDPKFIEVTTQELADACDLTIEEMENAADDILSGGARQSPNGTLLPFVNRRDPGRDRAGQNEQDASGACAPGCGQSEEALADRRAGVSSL

As to `Cc1cccn2cc(-c3ccc(OCCCN4CCCCC4)cc3)nc12`, the Concentration with Mus musculus [1] was 1%.

`CCCCN(CCCC)CCCOc1ccc(-c2cn3cccc(C)c3n2)cc1C`: the Concentration with Mus musculus [1] was 0.1%.

For `Cc1cccn2cc(-c3ccc(OCCCn4ccnc4)cc3)nc12`, the Concentration in the data set on Mus musculus [1] is > 1%.

Regarding `CCCCN(CCCC)CCCOc1ccc(C(=O)c2cnc3nc(C)ccn23)cc1`, in data set [2], the IC50 turned out to be 6.1 µM. The Concentration result in the data set on Mus musculus [3] is “inactive”.

In turn, `CCCCN(CCCC)CCCOc1ccc(-c2cn3cc(C)ccc3n2)cc1` came in with a Concentration in the data set with Mus musculus [1] of 0.1%.

As for `CCCCN(CCCC)CCCOc1ccc(C(=O)c2cnc3ncccn23)cc1.Cl.Cl`, in the data set filed under Canis familiaris, the Inhibition stood at 44%. Also, the Concentration result in the data set on Mus musculus [3] is “inactive”.

In turn, `CCCCN(CCCC)CCCOc1ccc(C(=O)c2cnc3ccc(Br)cn23)cc1` returned a Concentration in the data set with Mus musculus [1] of 0.1%.

For the compound `CCCCN(CCCC)CCCOc1ccc(-c2cn3c(n2)sc2ccccc23)cc1.Cl.Cl`, the Inhibition in the data set listed under Canis familiaris stood at 15%. This compound showed a Concentration in the data set on Mus musculus [1] of 1%.

The compound `CCCCN(CCCC)CCCOc1ccc(-c2cn3cccc(C)c3n2)c(C)c1` showed a Concentration with Mus musculus [1] of 0.1%.

Take `CCCCN(CCCC)CCCOc1ccc(-c2cn3cccnc3n2)cc1`: in the data set on Mus musculus [1], the Concentration was > 1%. The inhibition at 68 µM in data set [4] was 43%.

Take `CCCCN(CCCC)CCCOc1ccc(-c2cn3ccsc3n2)cc1`: the Concentration in the data set with Mus musculus [1] is > 1%.

Take `CCCCN(CCCC)CCCOc1ccc(-c2cn3cccc(C)c3n2)cc1`: in the data set with Mus musculus [1], the Concentration came to 0.01%.

As to `COc1ccc([C@@H]2Sc3ccccc3N(CCN(C)C)C(=O)[C@@H]2OC(C)=O)cc1` [DILTIAZEM], in the data set listed under Canis familiaris, the Inhibition is 96%.

Take `CCN(CC)CC(=O)Nc1c(C)cccc1C`: the Concentration in the data set on Mus musculus [1] stood at 1%.

Take `CCCCN(CCCC)CCCOc1ccc(-c2cn3ccccc3n2)cc1.Cl`: the Inhibition in the data set listed under Canis familiaris was 5.4%. Also, in the data set with Mus musculus [1], the Concentration came to 0.1%.

Consider `CCCCN(CCCC)CCCOc1ccc(-c2cn3cccc([N+](=O)[O-])c3n2)cc1`, for which, in the data set with Mus musculus [1], the Concentration is > 1%.

On to `CCCN(CCC)CCCOc1ccc(-c2cn3cccc(C)c3n2)cc1`, for which the Concentration in the data set with Mus musculus [1] stood at 0.1%.

For `COc1ccc(CCN(C)CCCC(C#N)(c2ccc(OC)c(OC)c2)C(C)C)cc1OC` (stereo not drawn), the Inhibition in the data set listed under Canis familiaris was 93%. Further, in the data set on Mus musculus [1], the Concentration was 1%.

On to `CCCCCN(CCCCC)CCCOc1ccc(-c2cn3cccc(C)c3n2)cc1`, for which the Concentration in the data set with Mus musculus [1] is 0.1%.

Turning to `CCCCN(CCCC)CCCOc1ccc(-c2cn3nc(C)sc3n2)cc1`, in the data set on Mus musculus [3], the Concentration result was “inactive”.

In the data set on Mus musculus [1], `CCCCN(CCCC)CCCOc1ccc(-c2nc3sccn3c2C)cc1` had a Concentration of 0.1%.

For `CCCCN(CCCC)CCCOc1ccc(-c2cn3ccc(C)nc3n2)cc1`, the Concentration result in the data set with Mus musculus [3] was “inactive”.

With `Cc1cccn2cc(-c3ccc(OCCCN4CCOCC4)cc3)nc12`, the Concentration with Mus musculus [1] is > 1%.

`CCCCN(CCCC)CCCOc1ccc(-c2cn3cccc(C)c3n2)cc1OC` registered a Concentration in the data set on Mus musculus [1] of 0.01%.

As for `COC(=O)C1=C(C)NC(C)=C(C(=O)OC)C1c1ccccc1[N+](=O)[O-]` [NIFEDIPINE], in the data set listed under Canis familiaris, the Inhibition is listed as 95%. The Concentration in the data set on Mus musculus [1] is > 1%.

Compound `CCCCN(CCCC)CCCOc1ccc(-c2nc3c(C)cccn3c2C)cc1` had a Concentration with Mus musculus [1] of 0.1%.

For the compound `CC(C)COCC(CN(Cc1ccccc1)c1ccccc1)N1CCCC1` (stereo not drawn) [BEPRIDIL], the IC50 in data set [2] turned out to be 22 µM. Further, the Inhibition in the data set listed under Canis familiaris is given as 81%.

Take `CCCCN(CCCC)CCCOc1ccc(-c2cn3nccnc3n2)cc1.Cl.Cl`: the Inhibition in the data set listed under Canis familiaris came out at 46%. Besides, in the data set on Mus musculus [3], the Concentration result is “inactive”.

For `CCCCN(CCCC)CCCCOc1ccc(-c2cn3cccc(C)c3n2)cc1`, in the data set on Mus musculus [1], the Concentration is 1%.

On to `Cc1cccn2cc(-c3ccc(OCCCN(C)C)cc3)nc12`, for which the Concentration in the data set with Mus musculus [1] is 1%.

`CCCCN(CCCC)CCCOc1c(OC)cc(-c2cn3cccc(C)c3n2)cc1OC` came in with a Concentration in the data set with Mus musculus [1] of 0.1%.

As for `CCCCN(CCCC)CCCOc1ccc(-c2cn3cc(Br)ccc3n2)cc1`, the Concentration in the data set on Mus musculus [1] worked out at 1%.

Regarding `CCCCN(CCCC)CCCOc1ccc(C(=O)c2cn3cc(Br)ccc3n2)cc1.Cl.Cl`, the Inhibition in the data set listed under Canis familiaris is reported as 50%. Also, in the data set with Mus musculus [1], the Concentration is 1%.

On to `CCCCN(CCCC)CCCOc1ccc(-c2cn3c(C)cccc3n2)cc1`, for which the Concentration in the data set on Mus musculus [1] worked out at 0.1%.

Compound `CCCCN(CCCC)CCCOc1ccc(C(=O)c2cn3ccc(C)cc3n2)cc1` displayed a Concentration with Mus musculus [1] of 1%.

`CCCCN(CCCC)CCCOc1ccc(C(=O)c2cnc3c(C)cccn23)cc1`: the IC50 in data set [2] turned out to be 0.5 µM. Besides, in the data set on Mus musculus [1], the Concentration was found to be 0.1%.

Turning to `CCCCN(CCCC)CCCOc1ccc(-c2cn3cccc(O)c3n2)cc1`, the Concentration in the data set on Mus musculus [1] was found to be 0.1%.

Consider `CCCCN(CCCC)CCCOc1ccc(C(=O)c2cn3cccc(C)c3n2)cc1`, for which the IC50 in data set [2] turned out to be 6 µM. In addition, the Concentration in the data set on Mus musculus [1] amounted to 1%.

`CCCCN(CCCC)CCCOc1ccc(-c2cn3ccc(C)cc3n2)cc1` showed a Concentration in the data set on Mus musculus [1] of 0.1%.

Consider `CCCCN(CCCC)CCCOc1ccc(-c2cn3cccc(OCc4ccccc4)c3n2)cc1`, for which, in the data set with Mus musculus [1], the Concentration amounted to 0.1%. Besides, the inhibition at 10 µM in data set [5] was determined as 45%.

For orientation: IC50 means the concentration at which inhibition is half-maximal. In general, Inhibition refers to the relative decrease from the control value, in per cent. By inhibition is commonly meant the change of the read-out against control, counted positive when it falls.
